Read-outs that look alike come from different tables or passages of the source.

Consider 14 compounds from patent publication US8828992B2, “Substituted azole derivatives, pharmaceutical composition containing the derivatives, and method for treating Parkinson's disease using the same” (priority 2009, dated 2014).

For assay [1], the system named is dopamine (DA) in the striata of MPTP-treated mice. As to the kind of experiment: Levels of dopamine in the striata of MPTP-treated mice (HPLC). It is filed as in vivo. The settings on record: Mus musculus, po, 168 h, 10 mpk, 7 days after MPTP, read-out: Levels of dopamine (DA) in the striata, compared to a control group %. The method, then:
(§1) A. MPTP (1-methyl-4-phenyl-1,2,3,6-tetrahydropyridine) and drug treatment MPTP (20 mg/kg, free base; Sigma, St. louis, Mo.) was administered to an 8 week old (20-25 g) male C57BL/6 test mouse intraperitoneally three times a day at the interval of 2 hours to construct a model (Breidert et al., 2002; Lichuan Yang, Shuei Sugama, Jason W. Chirichigno, Jason Gregorio, Stefan Lorenzl, Dong H. Shin, Susan E. Browne, Yoshinori Shimizu, Tong H. Joh, M. Flint Beal, l and David S. Alber. (2003) Minocycline Enhances MPTP Toxicity to Dopaminergic Neurons. J Neurosci Res. 74:278-285). In order to observe the protective effects of the compound as a candidate drug, the compound was dissolved in a solution containing 10% dimethylsulfoxide (DMSO), 10% Cremophor, and 40% polyethyleneglycol (PEG), […] treatment. Rasagiline as a control drug was also dissolved in the same solution, and the resulting solution was administered at the same doses in the same manner as above. A control group (Sham) in which MPTP was not administered was constructed by intraperitoneally administering saline solution to the group instead of MPTP in the same manner as above and orally administering the same solution 1 hour before and after PBS treatment.
The changes of contents of dopamine and dopamine metabolites in the striatum in accordance with administrations of MPTP and the drug were measured by high performance liquid chromatography (HPLC). At 7 days after administration of the drug, the animal was sacrificed by cervical vertebra dislocation and the brain tissues were immediately isolated from the animal. 0.5 ml of iced solution for HPLC analysis (0.1 M perchloric acid and 0.1 mM EDTA) was added to a striatum obtained from the isolated brain tissues, and an ultrasonic grinder was used to prepare a tissue homogenate. The tissue homogenate was centrifuged at 12,000 rpm for 15 minutes, and its supernatant was filtered through nitrocellulose membrane filter (0.2 um, Millipore). For HPLC analysis, uBondapak™ C18 column (4.6×150 mm, particle size 10 μm: Shisheido, Japan) was used, the flow rate of the mobile phase (0.07 M monobasic sodium phosphate), 1 mM sodium octasulfonic acid, 0.1 uM EDTA, 5% acetonitrile, pH 3.2) was maintained at 0.7 ml/min, and the electrode potential of the electrochemical detector (ICA-5000, Japan) was set at 700 mV.

In assay [2] the target is T1, Monoamineoxidase B type human-derived enzyme (Homo sapiens, UniProt P27338).
T1 sequence (P27338 1-520): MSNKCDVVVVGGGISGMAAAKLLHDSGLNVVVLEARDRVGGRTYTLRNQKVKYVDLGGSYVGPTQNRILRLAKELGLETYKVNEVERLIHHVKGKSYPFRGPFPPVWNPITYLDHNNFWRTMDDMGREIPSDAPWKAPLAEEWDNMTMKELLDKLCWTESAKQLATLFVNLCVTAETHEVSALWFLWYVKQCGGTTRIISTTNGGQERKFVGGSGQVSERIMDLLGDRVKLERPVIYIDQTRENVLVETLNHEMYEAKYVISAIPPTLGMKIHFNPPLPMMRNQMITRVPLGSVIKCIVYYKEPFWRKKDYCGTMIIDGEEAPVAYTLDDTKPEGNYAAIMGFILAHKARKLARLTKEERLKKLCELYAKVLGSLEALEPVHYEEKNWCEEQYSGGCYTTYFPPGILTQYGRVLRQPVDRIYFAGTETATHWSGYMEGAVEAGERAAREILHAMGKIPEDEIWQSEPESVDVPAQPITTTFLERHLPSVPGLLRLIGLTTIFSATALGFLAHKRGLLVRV
Nature of the assay: Inhibitory effects on the activity of MAO-B (Amplex Red fluorescence, benzylamine substrate). The settings on record: read-out: Inhibitory effects (%) on the activity of MAO-B. It is filed as biochemical. Summed up:
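Human MAO-B, diluted 1:200 in 0.05 M sodium phosphate pH 7.4, was pre-incubated with compound for 30 min. It was then mixed 1:1 with working buffer holding 400 μM Amplex Red, 2 U/ml HRP and 2 mM benzylamine (working-buffer levels). Fluorescence (Ex 563/Em 587 nm) was read over 30 min.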

The test system of assay [3] is MPTP-induced mouse model. Nature of the assay: Tail suspension test in MPTP-induced mouse model of Parkinson's disease. Format: in vivo. The settings on record: Mus musculus, 168 h; administration concentration 10 (10 mg/kg), oral, 7 days after MPTP; % of control group (Sham); read-out: Mobility (%). The method, then:
as §1
A tail suspension test was performed in order to measure the induction degree of behavioral dysfunctions in accordance with administration of MPTP and a drug. At 7 days after administration of the drug, a round stainless steel rod (width: 1 cm) was affixed to a cage (width: 16 cm, height: 40 cm) 35 cm above from the surface shielded by black wooden structures in the left and right sides to perform experiments. The time for which the animal moved for a total period of 6 minutes was measured in seconds to evaluate the drug action.
Mobility refers to an expression of the measurement of the time for which the animal moved with its tail hung high as a percentage compared to the measurement of a control group.

Assay [4] concerns dopamine (DA) in the striatum of a MPTP-treated mouse. As to the kind of experiment: Combined administration with Levodopa group: dopamine in the striatum of MPTP-treated mouse (HPLC). It is filed as in vivo. The settings on record: compound 1 mg/kg PO co-administered with Levodopa group (Levodopa 50 mg/kg + Benzerazide 25 mg/kg IP); for Concentration of dopamine compared to a control group %, 1 hr: 1 hr after Levodopa; for Concentration of dopamine compared to a control group %, 3 hr: 3 hr after Levodopa. The method, then: MPTP (20 mg/kg, free base; Sigma, St. louis, Mo.) was administered to an 8 week old (20-25 g) male C57BL/6 test mouse intraperitoneally at the interval of 2 hours to construct a model.
In order to observe the effects of combined administration of a compound of the present invention and Levodopa, the compound of the present invention was dissolved in a solution containing 0.02 ml of dimethylsulfoxide (DMSO), 0.02 ml of Cremophor, 0.08 ml of polyethyleneglycol (PEG), and 0.08 ml of physiological saline. The resulting solution was orally administered at doses of 1 mg/kg one week after the MPTP treatment, and a Levodopa group containing Levodopa at 50 mg/kg and Benzerazide at 25 mg/kg was intraperitoneally administered 1 hour later.
A single administration of the Levodopa group in the following Table 4 indicates values resulting from a MPTP (toxin) treatment followed by an administration of the Levodopa group compared to the treatment results of a Levodopa single administration group of Levodopa and Benzerazide.
At 1 hour and 3 hours after administration of Levodopa, the animals were sacrificed by cervical vertebra dislocation and the brain tissues were immediately isolated from the animals. 0.5 me of iced solution for HPLC analysis (0.1 M perchloric acid and 0.1 mM EDTA) was added to a striatum obtained from the isolated brain tissues, and an ultrasonic grinder was used to prepare a tissue homogenate. The tissue homogenate was centrifuged at 12,000 rpm for 15 minutes, and its supernatant was filtered through nitrocellulose membrane filter (0.2 um, Millipore). For HPLC analysis, uBondapak™ C18 column (4.6×150 mm, particle size 10 μm: Shisheido, Japan) was used, the flow rate of the mobile phase (0.07 M monobasic sodium phosphate, 1 mM sodium octasulfonic acid, 0.1 uM EDTA, 5% acetonitrile, pH 3.2) was maintained at 0.5 me/min, and the electrode potential of the electrochemical detector (CouloChem III, ESA, Japan) was set at 350 mV.

On to `NC(=O)OCc1cc(-c2ccc(OCc3ccccc3)cc2)no1` [Example 1, carbamic acid 3-(4-benzyloxy-phenyl)-isoxazole-5-ylmethyl ester], for which the response vs control in vivo at 10 mg/kg in assay [1] was determined as 112%; in assay [3], 113%. In assay [2], the inhibition at 0.01 µM was found to be 96.6%. The “Concentration of dopamine compared to a control group %, 1 hr” value (“Concentration … to a control group %, 1 hr” for short) in assay [4] is 129.5%. Also, the “Concentration of dopamine compared to a control group %, 3 hr” value (“Concentration … to a control group %, 3 hr” for short) in assay [4] came out at 90.8%.
`NC(=O)OCc1cc(-c2ccc(OCc3cccc(F)c3)cc2)no1` [Example 12, carbamic acid 3-[4-(3-fluoro-benzyloxy)-phenyl]-isoxazol-5-ylmethyl ester]: the response vs control in vivo at 10 mg/kg in assay [1] is 78.8%; in assay [3], 85.3%. Further, the inhibition at 0.01 µM in assay [2] (treatment concentration 10 nM) was 94.1%.
For `NC(=O)OCc1cc(-c2ccc(OCc3ccc(C=NO)cc3)cc2)no1` [Example 37, carbamic acid 3-{4-[4-(hydroxyimino-methyl)-benzyloxy]-phenyl}-isoxazol-5-ylmethyl ester] the same measures were 79.2%, 77.5% and 92.3%.
For `NC(=O)OCc1cc(-c2ccc(OCc3cccc(C=NO)c3)cc2)no1` [Example 38, carbamic acid 3-{4-[3-(hydroxyimino-methyl)-benzyloxy]-phenyl}-isoxazol-5-ylmethyl ester] the same measures were 52.9%, 73% and 91.7%.
Consider `CCCCCCOc1ccc(-c2cc(COC(N)=O)on2)cc1` [Example 45, carbamic acid 3-(4-hexyloxy-phenyl)-isoxazol-5-ylmethyl ester], for which the response vs control in vivo at 10 mg/kg in assay [1] was found to be 41.1%; in assay [3], 114%. Also, in assay [2], the inhibition at 0.01 µM came to 87.6%.
For `NC(=O)OCc1cc(-c2ccc(OCc3ccccn3)cc2)no1` [Example 65, Carbamic acid 3-[4-(pyridin-2-ylmethoxy)-phenyl]-isoxazol-5-ylmethyl ester], the response vs control in vivo at 10 mg/kg in assay [1] worked out at 74.9%; in assay [3], 94.1%. The inhibition at 0.01 µM in assay [2] is 89.9%.
For `NC(=O)OCc1cc(-c2ccc(OCc3ccncc3)cc2)no1` [Example 67, Carbamic acid 3-[4-(pyridin-4-ylmethoxy)-phenyl]-isoxazol-5-ylmethyl ester] the same measures were 80.7%, 88.9% and 94.2%.
Turning to `NC(=O)OCc1cc(-c2ccc(OCn3nnc4ccccc43)cc2)no1` [Example 71, Carbamic acid 3-[4-(benzotriazol-1-ylmethoxy)-phenyl]-isoxazol-5-ylmethyl ester], the response vs control in vivo at 10 mg/kg in assay [1] is 41.1%. In addition, in assay [2] (treatment concentration 10 nM), the inhibition at 0.01 µM amounted to 56%.
Consider `NC(=O)OCc1cc(-c2ccc(NCc3ccccc3)cc2)no1` [Example 74, Carbamic acid 3-(4-benzylamino-phenyl)-isoxazol-5-ylmethyl ester], for which, in assay [2], the inhibition at 0.01 µM is 84.5%. Moreover, in assay [3], the response vs control in vivo at 10 mg/kg was determined as 96.9%. In addition, in assay [4], the “Concentration … to a control group %, 1 hr” value turned out to be 153.7% and the “Concentration … to a control group %, 3 hr” value is listed as 74.7%.
As to `NC(=O)OCc1cc(-c2ccc(NCc3c(F)cccc3F)cc2)no1` [Example 79, Carbamic acid 3-[4-(2,6-difluoro-benzylamino)-phenyl]-isoxazol-5-ylmethyl ester], in assay [2] (treatment concentration 10 nM), the inhibition at 0.01 µM was found to be 84.6%. Also, the response vs control in vivo at 10 mg/kg in assay [3] was found to be 99.4%. In assay [4], the “Concentration … to a control group %, 1 hr” value turned out to be 87.6% and the “Concentration … to a control group %, 3 hr” value came out at 115.2%.
Take `NC(=O)OCc1cc(-c2ccc(NCc3ccc(F)c(F)c3)cc2)no1` [Example 84, Carbamic acid 3-[4-(3,4-difluoro-benzylamino)-phenyl]-isoxazol-5-ylmethyl ester]: the inhibition at 0.01 µM in assay [2] (treatment concentration 10 nM) is 88.5%. For the same compound, in assay [3], the response vs control in vivo at 10 mg/kg was determined as 97.7%. Besides, in assay [4], the “Concentration … to a control group %, 1 hr” value stood at 153.7% and the “Concentration … to a control group %, 3 hr” value is 144.3%.
With `Cc1cn(Cc2cc(-c3ccc(OCc4ccccc4)cc3)no2)cn1` [Example 141, 3-(4-benzyloxy-phenyl)-5-(4-methyl-imidazol-1-ylmethyl)-isoxazole], the response vs control in vivo at 10 mg/kg in assay [1] stood at 51.2%; in assay [3], 94.6%. In assay [2] (treatment concentration 10 nM), the inhibition at 0.01 µM stood at 92.2%.
With `Fc1cccc(COc2ccc(-c3cc(Cn4ccnc4)on3)cc2)c1` [Example 142, 3-[4-(3-fluoro-benzyloxy)-phenyl]-5-imidazol-1-ylmethyl-isoxazole], the inhibition at 0.01 µM in assay [2] (treatment concentration 10 nM) amounted to 89.5%. For the same compound, the response vs control in vivo at 10 mg/kg in assay [3] came to 101%. For the same compound, in assay [4], the “Concentration … to a control group %, 1 hr” value is recorded as 174.5% and the “Concentration … to a control group %, 3 hr” value was 65.5%.
In the case of `Fc1cccc(F)c1COc1ccc(-c2cc(Cn3ccnc3)on2)cc1` [Example 143, 3-[4-(2,6-difluoro-benzyloxy)-phenyl]-5-imidazol-1-ylmethyl-isoxazole], the response vs control in vivo at 10 mg/kg in assay [1] was 46.1%; in assay [3], 98.9%. Further, in assay [2] (treatment concentration 10 nM), the inhibition at 0.01 µM amounted to 98.1%.
